Laboratory results from the supplement of paper PMC10307832.

Experiments:
Experiment in all cases: relative viability (nuclei count vs DMSO), 5 days (fraction); higher = more cells survive
Mirin + AZD7762 = compound: N=C1NC(=O)/C(=C/c2ccc(O)cc2)S1 [Mirin] + NC(=O)Nc1cc(-c2cccc(F)c2)sc1C(=O)N[C@H]1CCCNC1 [AZD7762] (partner 0.2 µM)
Procedure, shortened: (§1)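 Cells from lung cancer lines were seeded into 1536-well plates and, one day later, dosed by pin tool. Treatments were either a single drug or a fixed dose of an anchor drug with five library-drug doses (not always all listed) in √10 steps. After 5 days, nuclei were stained in a one-step fixation (final 0.05% Triton X-100, 1% formaldehyde, 1 ug/ml Hoechst) and counted on 4× images, and relative viability is the treated-to-vehicle nuclei ratio, as the median of duplicate plates.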

[1] = compound: CCn1c(-c2nonc2N)nc2cnc(Oc3cccc(NC(=O)c4ccc(OCCN5CCOCC5)cc4)c3)cc21 + Cc1cc(Nc2cc(N3CCN(C)CC3)nc(Sc3ccc(NC(=O)C4CC4)cc3)n2)n[nH]1 [Tozasertib] (partner 0.1 µM)
Procedure, shortened: as §1

[2] = compound: CCn1c(-c2nonc2N)nc2cnc(Oc3cccc(NC(=O)c4ccc(OCCN5CCOCC5)cc4)c3)cc21 + CCNC(=O)c1noc(-c2cc(C(C)C)c(O)cc2O)c1-c1ccc(CN2CCOCC2)cc1 [Luminespib] (partner 0.01 µM)
Procedure, shortened: as §1

[3] = compound: CCC1=CN=CN=C1N2CCN(CC2)CC3=NC4=C(N3)C=C(C=C4)C(F)(F)F + Cc1cc(Nc2cc(N3CCN(C)CC3)nc(Sc3ccc(NC(=O)C4CC4)cc3)n2)n[nH]1 [Tozasertib] (partner 0.1 µM)
Procedure, shortened: as §1

| Cell Line | relative viability (Mirin + AZD7762; first compound 0.25 µM) | relative viability (Mirin + AZD7762; first compound 0.7906 µM) | relative viability (Mirin + AZD7762; first compound 2.5 µM) | relative viability (Mirin + AZD7762; first compound 7.906 µM) | relative viability (Mirin + AZD7762; first compound 25 µM) | relative viability ([1]; first compound 0.04 µM) | relative viability ([1]; first compound 0.1265 µM) | relative viability ([1]; first compound 0.4 µM) | relative viability ([1]; first compound 1.265 µM) | relative viability ([1]; first compound 4 µM) | relative viability ([2]; first compound 0.04 µM) | relative viability ([2]; first compound 0.1265 µM) | relative viability ([2]; first compound 0.4 µM) | relative viability ([2]; first compound 1.265 µM) | relative viability ([2]; first compound 4 µM) | relative viability ([3]; first compound 0.04 µM) | relative viability ([3]; first compound 0.1265 µM) | relative viability ([3]; first compound 0.4 µM) | relative viability ([3]; first compound 1.265 µM) | relative viability ([3]; first compound 4 µM) |
| --- | --- | --- | --- | --- | --- | --- | --- | --- | --- | --- | --- | --- | --- | --- | --- | --- | --- | --- | --- | --- |
| LXF-289 | 1.07 | 1.3 | 1.16 | 1.36 | 1.47 | 0.221 | 0.198 | 0.195 | 0.104 | 0.0834 | 0.791 | 0.638 | 0.798 | 0.701 | 0.654 | 0.168 | 0.175 | 0.206 | 0.16 | 0.192 |
| LOU-NH91 | 0.799 | 0.782 | 0.754 | 0.713 | 0.854 | 0.631 | 0.518 | 0.45 | 0.353 | 0.369 | 0.367 | 0.328 | 0.331 | 0.271 | 0.248 | 0.625 | 0.68 | 0.669 | 0.585 | 0.657 |
| NCI-H2347 | 0.946 | 0.786 | 0.861 | 0.669 | 0.704 | 0.634 | 0.637 | 0.674 | 0.45 | 0.395 | 0.399 | 0.451 | 0.599 | 0.283 | 0.302 | 0.405 | 0.454 | 0.579 | 0.389 | 0.513 |
| NCI-H1993 | 0.897 | 0.628 | 0.679 | 0.808 | 0.971 | 0.634 | 0.705 | 0.502 | 0.501 | 0.455 | 0.891 | 0.768 | 1.02 | 0.692 | 0.664 | 0.627 | 0.509 | 0.597 | 0.566 | 0.493 |
| HCC-827 | 0.209 | 0.184 | 0.242 | 0.157 | 0.225 | 0.453 | 0.434 | 0.387 | 0.383 | 0.346 | 1.09 | 0.592 | 0.792 | 0.591 | 0.588 | 0.441 | 0.409 | 0.397 |  | 0.435 |
| CAL-12T | 0.681 | 0.858 | 0.633 | 0.717 | 0.831 | 0.433 | 0.297 | 0.28 | 0.186 | 0.189 | 0.687 | 0.444 | 0.287 | 0.379 | 0.286 | 0.367 | 0.294 | 0.328 | 0.429 | 0.289 |
| PC-14 | 0.389 | 0.481 | 0.365 | 0.313 | 0.429 | 0.691 | 0.47 | 0.422 | 0.326 | 0.321 | 0.15 | 0.136 | 0.154 | 0.154 | 0.173 | 0.599 | 0.546 | 0.55 | 0.502 | 0.582 |
| NCI-H23 | 0.221 |  | 0.259 | 0.198 | 0.131 | 0.364 | 0.34 | 0.333 | 0.291 | 0.322 | 0.225 | 0.242 | 0.217 | 0.21 | 0.215 | 0.341 | 0.361 | 0.346 | 0.305 | 0.361 |
| NCI-H727 | 0.595 | 0.612 | 0.841 | 0.47 | 0.443 | 0.609 | 0.666 | 0.586 | 0.478 | 0.502 | 0.418 | 0.264 | 0.352 | 0.379 | 0.413 | 0.646 | 0.621 | 0.648 | 0.42 | 0.619 |
| HCC-44 | 1.05 | 1.22 | 1.04 | 1.03 | 1.11 | 0.841 | 0.146 | 0.373 | 0.225 | 0.188 | 0.772 | 0.974 | 0.478 | 0.17 | 0.126 | 0.955 | 0.962 | 0.905 | 0.597 | 1.06 |
| A-427 | 0.772 | 0.879 | 0.701 | 0.737 | 0.636 | 0.189 | 0.234 | 0.228 | 0.182 | 0.186 | 1.14 | 0.974 | 0.627 | 0.416 | 0.524 | 0.209 | 0.218 | 0.21 | 0.174 | 0.177 |
| SW 900 | 0.67 | 0.669 | 0.669 | 0.518 | 0.641 | 0.625 | 0.706 | 0.637 | 0.488 | 0.431 | 0.178 | 0.197 | 0.178 | 0.154 | 0.174 | 0.538 | 0.585 | 0.497 | 0.548 | 0.523 |
| NCI-H441 | 1.36 | 1.05 | 1.23 | 1.2 | 1.18 | 0.834 | 0.546 |  | 0.344 | 0.354 | 0.333 | 0.342 |  | 0.326 | 0.416 | 0.501 | 0.752 | 0.506 | 0.583 | 0.622 |
| ABC-1 | 0.603 | 0.929 | 0.628 | 0.847 | 0.683 | 0.137 | 0.153 | 0.156 | 0.209 | 0.176 | 0.633 | 0.617 | 0.367 | 0.254 | 0.248 | 0.176 | 0.172 | 0.172 | 0.152 | 0.196 |
| LK-2 | 0.22 |  | 0.338 | 0.209 | 0.185 | 0.198 | 0.159 | 0.173 | 0.179 | 0.171 | 0.216 | 0.147 | 0.169 | 0.202 | 0.244 | 0.157 | 0.193 | 0.171 | 0.193 | 0.166 |
| NCI-H647 | 0.415 | 0.366 | 0.465 | 0.593 | 0.587 | 0.338 | 0.267 | 0.29 | 0.146 | 0.0969 | 0.18 | 0.139 | 0.269 | 0.106 | 0.116 | 0.253 | 0.296 | 0.375 | 0.206 | 0.393 |
| NCI-H1793 | 0.468 |  | 0.631 | 0.404 | 0.348 | 0.332 | 0.473 | 0.341 | 0.307 | 0.293 | 0.217 | 0.22 | 0.159 | 0.18 | 0.237 | 0.352 | 0.325 | 0.303 |  | 0.256 |
| NCI-H3122 | 1.01 | 0.954 | 0.927 | 1.07 | 1.1 | 0.501 | 0.395 | 0.385 | 0.332 | 0.325 | 0.0608 | 0.0978 | 0.0882 | 0.0945 | 0.0955 | 0.423 | 0.405 | 0.384 | 0.345 | 0.439 |
| LCLC-103H | 0.875 | 0.779 | 0.784 | 0.844 | 0.803 | 0.508 | 0.463 | 0.534 | 0.465 | 0.419 | 1.08 | 1.02 | 1.1 | 0.721 | 0.779 | 0.536 | 0.504 | 0.488 | 0.463 | 0.398 |
| NCI-H1755 | 0.503 | 0.431 | 0.472 | 0.383 | 0.453 | 0.527 | 0.58 | 0.534 | 0.416 | 0.349 | 0.345 | 0.713 | 0.275 | 0.299 | 0.388 | 0.627 | 0.503 | 0.596 | 0.515 | 0.521 |
| NCI-H358 | 0.584 | 0.569 | 0.528 | 0.442 | 0.369 | 0.0993 | 0.102 | 0.116 | 0.0599 | 0.0812 | 0.667 | 0.302 |  | 0.535 | 0.198 | 0.0937 | 0.0935 | 0.101 | 0.112 | 0.109 |
| NCI-H1734 | 0.529 | 0.42 | 0.549 | 0.498 | 0.483 | 0.223 | 0.264 | 0.234 | 0.179 | 0.212 | 0.165 | 0.21 | 0.192 | 0.15 | 0.166 | 0.267 | 0.248 | 0.253 | 0.283 | 0.261 |
| EPLC-272H | 0.239 |  | 0.23 | 0.227 | 0.161 | 0.152 | 0.394 | 0.26 | 0.306 | 0.223 | 0.263 | 0.697 | 0.265 | 0.26 | 0.286 | 0.257 | 0.225 | 0.262 | 0.327 | 0.332 |
